Organism: Rattus norvegicus
Test: Open TG-GATES - Regimen: Daily Repeat
Format: toxicity, organism-based, Sprague-Dawley
Set-up: regimen Daily Repeat, gender Male, age 6 weeks
Conditions: in vivo, po, 0 mg/kg, route gavage, dose level Control; for APTT / Bas / Eos / Fbg / Hb / Ht / Lym / MCH / MCHC / MCV / Mono / Neu / PT / Plat / RBC / Ret / WBC: tissue Blood; for KIDNEY_L / KIDNEY_R / KIDNEY_TOTAL: tissue Kidney; for LIVER: tissue Liver; for A/G / ALP / ALT / AST / BUN / CRE / Ca / Cl / DBIL / GLC / IP / K / LDH / Na / PL / RALB / TBIL / TC / TG / TP / gamma-GTP: tissue Plasma

## CC(=O)Nc1ccc2c(c1)Cc1ccccc1-2 [2-ACETYLAMINOFLUORENE]
72 h, time 3 day
  TERMINAL_BW: 245.3 g
  APTT: 19.9 s
  Bas: 1%
  Eos: 1.2%
  Fbg: 227.2 mg/dL
  Hb: 14 g/dL
  Ht: 40.4%
  Lym: 82.2%
  MCH: 21.5 pg
  MCHC: 34.6%
  MCV: 62.3 fL
  Mono: 3%
  Neu: 12.6%
  PT: 11.3 s
  Plat: 127 x10_4/uL
  RBC: 648.4 x10_4/ul
  Ret: 5.8%
  WBC: 105.6 x10_2/uL
  KIDNEY_L: 1.1 g
  KIDNEY_R: 1.1 g
  KIDNEY_TOTAL: 2.2 g
  LIVER: 12.2 g
  A/G: 1.6
  ALP: 913.6 IU/L
  ALT: 38.2 IU/L
  AST: 73.2 IU/L
  BUN: 15.2 mg/dL
  CRE: 0.5 mg/dL
  Ca: 11 mg/dL
  Cl: 101.8 meq/L
  DBIL: 0.1 mg/dL
  GLC: 208.4 mg/dL
  IP: 8 mg/dL
  K: 4.1 meq/L
  LDH: 217.2 IU/L
  Na: 141.2 meq/L
  PL: 163 mg/dL
  RALB: 3.6 g/dL
  TBIL: 0.2 mg/dL
  TC: 81.8 mg/dL
  TG: 104.6 mg/dL
  TP: 5.8 g/dL
  gamma-GTP: 1.2 IU/L
[…], time 7 day
  TERMINAL_BW: 278.1 g
  APTT: 19.7 s
  Bas: 0.4%
  Eos: 1%
  Fbg: 242 mg/dL
  Hb: 14.1 g/dL
  Ht: 39.9%
  Lym: 82.8%
  MCH: 21.9 pg
  MCHC: 35.2%
  MCV: 62.1 fL
  Mono: 2.4%
  Neu: 13%
  PT: 11.7 s
  Plat: 138.4 x10_4/uL
  RBC: 643 x10_4/ul
  Ret: 5.6%
  WBC: 114.7 x10_2/uL
  KIDNEY_L: 1.2 g
  KIDNEY_R: 1.2 g
  KIDNEY_TOTAL: 2.4 g
  LIVER: 12.4 g
  A/G: 1.4
  ALP: 914.8 IU/L
  ALT: 35.8 IU/L
  AST: 65 IU/L
  BUN: 13.6 mg/dL
  CRE: 0.4 mg/dL
  Ca: 10.7 mg/dL
  Cl: 103.2 meq/L
  DBIL: 0.076 mg/dL
  GLC: 201.2 mg/dL
  IP: 7.5 mg/dL
  K: 4.1 meq/L
  LDH: 188 IU/L
  Na: 140.4 meq/L
  PL: 136.4 mg/dL
  RALB: 3.4 g/dL
  TBIL: 0.1 mg/dL
  TC: 64.8 mg/dL
  TG: 96.2 mg/dL
  TP: 5.7 g/dL
  gamma-GTP: 1.4 IU/L
[…], time 14 day
  TERMINAL_BW: 334.5 g
  APTT: 21 s
  Bas: 0.8%
  Eos: 1%
  Fbg: 225.8 mg/dL
  Hb: 14.7 g/dL
  Ht: 42.3%
  Lym: 82.8%
  MCH: 20.5 pg
  MCHC: 34.7%
  MCV: 59 fL
  Mono: 2.2%
  Neu: 12.6%
  PT: 11.8 s
  Plat: 117.3 x10_4/uL
  RBC: 716.4 x10_4/ul
  Ret: 4%
  WBC: 96.8 x10_2/uL
  KIDNEY_L: 1.3 g
  KIDNEY_R: 1.3 g
  KIDNEY_TOTAL: 2.6 g
  LIVER: 14.9 g
  A/G: 1.4
  ALP: 880.2 IU/L
  ALT: 35 IU/L
  AST: 64.4 IU/L
  BUN: 15.4 mg/dL
  CRE: 0.5 mg/dL
  Ca: 10.7 mg/dL
  Cl: 103.4 meq/L
  DBIL: 0.1 mg/dL
  GLC: 196.2 mg/dL
  IP: 7.3 mg/dL
  K: 4.1 meq/L
  LDH: 169.6 IU/L
  Na: 141.6 meq/L
  PL: 143.2 mg/dL
  RALB: 3.5 g/dL
  TBIL: 0.2 mg/dL
  TC: 69.6 mg/dL
  TG: 138 mg/dL
  TP: 5.9 g/dL
  gamma-GTP: 1.2 IU/L
[…], time 28 day
  TERMINAL_BW: 417 g
  APTT: 20.8 s
  Bas: 0.8%
  Eos: 1%
  Fbg: 215.8 mg/dL
  Hb: 14.9 g/dL
  Ht: 43%
  Lym: 82.4%
  MCH: 19.8 pg
  MCHC: 34.7%
  MCV: 57.1 fL
  Mono: 2.2%
  Neu: 13.2%
  PT: 11.6 s
  Plat: 104.4 x10_4/uL
  RBC: 752.2 x10_4/ul
  Ret: 2.6%
  WBC: 122.5 x10_2/uL
  KIDNEY_L: 1.5 g
  KIDNEY_R: 1.5 g
  KIDNEY_TOTAL: 3 g
  LIVER: 16.7 g
  A/G: 1.4
  ALP: 611.4 IU/L
  ALT: 30.8 IU/L
  AST: 61.8 IU/L
  BUN: 19 mg/dL
  CRE: 0.4 mg/dL
  Ca: 10.4 mg/dL
  Cl: 102.4 meq/L
  DBIL: 0.092 mg/dL
  GLC: 265 mg/dL
  IP: 7.2 mg/dL
  K: 3.8 meq/L
  LDH: 194.4 IU/L
  Na: 140.4 meq/L
  PL: 143.4 mg/dL
  RALB: 3.4 g/dL
  TBIL: 0.1 mg/dL
  TC: 69.8 mg/dL
  TG: 107.8 mg/dL
  TP: 5.8 g/dL
  gamma-GTP: 1 IU/L

Source: ChEMBL document CHEMBL3885861, “Open TG-GATES”
